What was measured:
[1] = Feed stability: storage in ready piglet feed, content by HPLC; type: physicochemical; details: feed mixture, 200 ppm, 30°
Procedure: (§1) As model feed a ready feed for piglets of the following composition is used:
Various forms of the preparation are mixed with the ready feed in a concentration of 200 ppm of compound of formula I and stored for several weeks at 30°. Both the starting value of the fresh mixtures and the content values after storage for 2, 4 and 8 weeks are analysed by high pressure liquid chromatography (HPLC).

[2] = Oral absorption in rats, plasma concentration by microbiological analysis; type: in vivo; details: rat, 25 mg/kg body weight, pure compound in drinking water
Procedure: (§2) Absorption following administration to rats and pigs of 25 mg/kg body weight of a preparation according to Example 3 is tested and compared with pure compound of formula I (hydrochloride) in the drinking water. Blood samples are taken after a period of 24 hours and the concentration of active substance in plasma determined by microbiological analysis. The results in Table 3 show the absorption of the compound of formula I when administered in the form of a complex of the invention: […]

[3] = Feed stability: optimum ratio of compound of formula I to β-cyclodextrin; type: physicochemical; details: feed mixtures, ratio to β-cyclodextrin varied
Procedure: as §1
Various forms of the preparation are mixed with the ready feed in a concentration of 200 ppm of compound of formula I and stored for several weeks at 30°. […]
For determination of the optimum ratio of compound of formula I to cyclodextrin, investigations are carried out using various concentrations of cyclodextrin. Results as regards stability in feed mixtures are summarized in Table 2 [in the first column "ratio" means the ratio of compound of formula I (hydrochloride) to β-cyclodextrin]: […]

[4] = Oral absorption in pigs, plasma concentration by microbiological analysis; type: in vivo; details: pig, 25 mg/kg body weight, pure compound in drinking water
Procedure: as §2

[5] = system: gram-positive and gram-negative bacteria; details: many gram-positive and gram-negative bacteria; free base, acid addition or quaternary salt form; cited from earlier work
[6] = Stability in conventional complete feed mixtures (general statement); type: physicochemical
[7] = Phase-solubility diagram (inclusion compound type, complex binding constant) with γ-cyclodextrin; type: physicochemical; details: compound of formula I in the form of the base
Description: (§3) Based on the phase-solubility diagram (see "Methods of investigating and preparing inclusion compounds and their industrial uses" in D. Duchene, "Cyclodextrins and their Industrial Uses", Editions de Sante [1987]), the following types of inclusion compounds are obtained with the compound of formula I in the form of the base and […]

[8] = Phase-solubility diagram (inclusion compound type, complex binding constant) with β-cyclodextrin; type: physicochemical; details: compound of formula I in the form of the base; with cyclodextrin (printed without Greek letter)
Description: as §3

[9] = read-out: AUC (area under curve)
[10] = read-out: Cmax (maximum plasma concentration)

SMILES	Content after 2 weeks ([1]; after 2 weeks, 20160 min) [%]	Content after 4 weeks ([1]; after 4 weeks, 40320 min) [%]	Content after 8 weeks ([1]; after 8 weeks, 80640 min) [%]	Content, initial value ([1]; initial value) [%]	AUC [2, 9] [ng·h/mL]	Cmax [2, 10] [ng/mL]	Content after 1 month ([3]; after 1 month, 43800 min) [%]	Content after 2 months ([3]; after 2 months, 87600 min) [%]	Content after 3 months ([3]; after 3 months, 131400 min) [%]	Content, initial value ([3]; initial value) [%]	AUC [4, 9] [ng·h/mL]	Cmax [4, 10] [ng/mL]	antibacterial effectiveness [5]	breakdown by constituents of conventional complete feed mixtures [6]	type of inclusion compound (phase-solubility diagram) [7]	type of inclusion compound (phase-solubility diagram) [8]
C=C[C@]1(C)C[C@@H](OC(=O)CSC(C)(C)CNC(=O)[C@H](N)C(C)C)[C@]2(C)[C@H](C)CC[C@]3(CCC(=O)[C@H]32)[C@@H](C)[C@@H]1O [14-O-[1-((D)-2-amino-3-methylbutyrylamino)-2-methylpropan-2-ylthioacetyl]mutilin]	15	8	6	100	139000	8600	9	9	7	100	21400	1200	–	–	–	–
C=C[C@]1(C)C[C@@H](OC(=O)CSC(C)(C)CNC(=O)[C@H](N)C(C)C)[C@]2(C)[C@H](C)CC[C@]3(CCC(=O)[C@H]32)[C@@H](C)[C@@H]1O [compound of formula I, 14-O-[1-((D)-2-amino-3-methylbutyrylamino)-2-methylpropan-2-ylthioacetyl]mutilin]	–	–	–	–	–	–	–	–	–	–	–	–	highly effective	broken down very rapidly	type BS	type AL
